Marks after values point to notes of the source that are not given here.
Experiments:
Tomato = experiment: Plant damages observed in the Alternaria solani preventive test (tomato); type: in vivo; conditions: footnote to table B2
Experimental: In Vivo Preventive Test on Alternaria solani (Tomato) To test for preventive activity, young plants are sprayed with the preparation of active compound at the stated rate of application. One day after this treatment, the plants are inoculated with an aqueous spore suspension of Alternaria solani. The plants remain for one day in an incubation cabinet at approximately 22° C. and a relative atmospheric humidity of 100%. Then the plants are placed in an incubation cabinet at approximately 20° C. and a relative atmospheric humidity of 96%. Under the same conditions, high (at least 85%) to total protection is observed at a dose of 500 and 100 ppm of active ingredient with compound of example 12, 20 and 25, whereas poor (less than 20%) protection to 100% of plant damages is observed with compound 1.006, compound CMP1 (chloro analogue of compound 1.006) and compound CMP2 (fluoro analogue of compound 1.006) claimed in patent application WO-2009/153191 as in table B2: […]

Leptosphaeria nodorum = experiment: In vivo preventive test on Leptosphaeria nodorum (wheat); conditions: evaluated 8 days after inoculation
Experimental: In Vivo Preventive Test on Leptosphaeria nodorum (Wheat) • Solvent: 49 parts by weight of N,N-dimethylacetamide • Emulsifier: 1 part by weight of alkylaryl polyglycol ether To produce a suitable preparation of active compound, 1 part by weight of active compound or active compound combination is mixed with the stated amounts of solvent and emulsifier, and the concentrate is diluted with water to the desired concentration. To test for preventive activity, young plants are sprayed with the preparation of active compound or active compound combination at the stated rate of application. After the spray coating has been dried, the plants are sprayed with a spore suspension of Leptosphaeria nodorum. The plants remain for 48 hours in an incubation cabinet at approximately 20° C. and a relative atmospheric humidity of approximately 100%. The plants are placed in the greenhouse at a temperature of approximately 22° C. and a relative atmospheric humidity of approximately 80%. The test is evaluated 8 days after the inoculation. 0% means an efficacy which corresponds to that of the untreated control, while an efficacy of 100% means that no disease is observed.

[1] = log P by HPLC on reversed-phase column (C 18), EEC Directive 79/831 Annex V.A8; type: physicochemical; conditions: 40° C., 0.1% aqueous formic acid and acetonitrile
Experimental: In table 1, the log P values were determined in accordance with EEC Directive 79/831 Annex V.A8 by HPLC (High Performance Liquid Chromatography) on a reversed-phase column (C 18), using the method described below: Temperature: 40° C.; Mobile phases: 0.1% aqueous formic acid and acetonitrile; linear gradient from 10% acetonitrile to 90% acetonitrile. Calibration was carried out using unbranched alkan-2-ones (comprising 3 to 16 carbon atoms) with known log P values (determination of the log P values by the retention times using linear interpolation between two successive alkanones). lambda-max-values were determined using UV-spectra from 200 nm to 400 nm and the peak values of the chromatographic signals.

Sphaerotheca fuliginea = experiment: In vivo preventive test on Sphaerotheca fuliginea (cucumber); conditions: 500 ppm of active ingredient, evaluated 7 days after inoculation
Experimental: In Vivo Preventive Test on Sphaerotheca Fulicinea (Cucumber) • Solvent: 49 parts by weight of N,N-dimethylformamide • Emulsifier: 1 part by weight of alkylarylpolyglycolether To produce a suitable preparation of active compound, 1 part by weight of active compound is mixed with the stated amounts of solvent and emulsifier, and the concentrate is diluted with water to the desired concentration. To test for preventive activity, young plants are sprayed with the preparation of active compound at the stated rate of application. One day after this treatment, the plants are inoculated with an aqueous spore suspension of Sphaerotheca fuliginea. Then the plants are placed in a greenhouse at approximately 23° C. and a relative atmospheric humidity of approximately 70%. The test is evaluated 7 days after the inoculation. 0% means an efficacy which corresponds to that of the untreated control, while an efficacy of 100% means that no disease is observed.

Alternaria solani = experiment: In vivo preventive test on Alternaria solani (tomato); conditions: evaluated 7 days after inoculation
Experimental: In Vivo Preventive Test on Alternaria solani (Tomato) • Solvent: 49 parts by weight of N,N-dimethylformamide • Emulsifier: 1 part by weight of alkylarylpolyglycolether To produce a suitable preparation of active compound, 1 part by weight of active compound is mixed with the stated amounts of solvent and emulsifier, and the concentrate is diluted with water to the desired concentration. To test for preventive activity, young plants are sprayed with the preparation of active compound at the stated rate of application. One day after this treatment, the plants are inoculated with an aqueous spore suspension of Alternaria solani. The plants remain for one day in an incubation cabinet at approximately 22° C. and a relative atmospheric humidity of 100%. Then the plants are placed in an incubation cabinet at approximately 20° C. and a relative atmospheric humidity of 96%. The test is evaluated 7 days after the inoculation. 0% means an efficacy which corresponds to that of the untreated control while an efficacy of 100% means that no disease is observed.

Pyrenophora teres = experiment: In vivo preventive test on Pyrenophora teres (barley); conditions: 500 ppm of active ingredient, evaluated 7-9 days after inoculation
Experimental: In Vivo Preventive Test on Pyrenophora teres (Barley) • Solvent: 49 parts by weight of N,N-dimethylformamide • Emulsifier: 1 part by weight of alkylaryl polyglycol ether To produce a suitable preparation of active compound, 1 part by weight of active compound is mixed with the stated amounts of solvent and emulsifier, and the concentrate is diluted with water to the desired concentration. To test for preventive activity, young plants are sprayed with the preparation of active compound at the stated rate of application. One day after this treatment, the plants are inoculated with an aqueous spore suspension of Pyrenophora teres. The plants remain for 48 hours in an incubation cabinet at 22° C. and a relative atmospheric humidity of 100%. Then the plants are placed in a greenhouse at a temperature of approximately 20° C. and a relative atmospheric humidity of approximately 80%. The test is evaluated 7-9 days after the inoculation. 0% means an efficacy which corresponds to that of the untreated control while an efficacy of 100% means that no disease is observed.

For `Cn1nc(C(F)F)c(C(=O)N2CCC[C@H]2COc2c(Cl)cc(Cl)cc2Cl)c1F` [CMP2, [3-(difluoromethyl)-5-fluoro-1-methyl-1H-pyrazol-4-yl]{(2S)-2-[(2,4,6-trichlorophenoxy)methyl]pyrrolidin-1-yl}methanone], the plant damages (Tomato; 100 ppm) was “^(a)together with 100% of plant damages” and the plant damages (Tomato; 500 ppm) was “^(a)together with 100% of plant damages”.
In the case of `Cn1nc(C(F)F)c(C(=O)N2CCC[C@H]2COc2c(Cl)cc(Cl)cc2Cl)c1Cl` [CMP1, [5-chloro-3-(difluoromethyl)-1-methyl-1H-pyrazol-4-yl]{(2S)-2-[(2,4,6-trichlorophenoxy)methyl]pyrrolidin-1-yl}methanone, reference compound], the Efficacy (Leptosphaeria nodorum; 100 ppm of active ingredient) is reported as 0%, the Efficacy (Leptosphaeria nodorum; 500 ppm of active ingredient) is reported as 0% and the plant damages (Tomato; 100 ppm) is reported as “^(a)together with 100% of plant damages”. The plant damages (Tomato; 500 ppm) was “^(a)together with 100% of plant damages”.
Molecule `Cn1nc(C(F)F)c(C(=O)N2CCCC2C2CCCCC2)c1F` (stereo not shown) [Example 11] has a logP [1] of 3.31, an Efficacy (Sphaerotheca fuliginea) of 95% and an Efficacy (Alternaria solani; 500 ppm of active ingredient) of 94%. It also gave an Efficacy (Pyrenophora teres) of 100%, an Efficacy (Leptosphaeria nodorum; 100 ppm of active ingredient) of 80% and an Efficacy (Leptosphaeria nodorum; 500 ppm of active ingredient) of 95%.
For `Cn1cc(C(=O)N2CCC[C@H]2COc2c(Cl)cc(Cl)cc2Cl)c(C(F)F)n1` [Compound 1.006, [3-(difluoromethyl)-1-methyl-1H-pyrazol-4-yl]{(2S)-2-[(2,4,6-trichlorophenoxy)methyl]pyrrolidin-1-yl}methanone, reference compound], the Efficacy (Alternaria solani; 100 ppm of active ingredient) was 20 ^(b) %, the Efficacy (Leptosphaeria nodorum; 100 ppm of active ingredient) was 40% and the Efficacy (Leptosphaeria nodorum; 500 ppm of active ingredient) was 60%. The plant damages (Tomato; 500 ppm) was “^(a)together with 100% of plant damages”.
In the case of `Cn1nc(C(F)F)c(C(=O)N2CCCC2CC2CC3CCC2C3)c1F` (stereo not shown) [Example 48], the logP [1] is reported as 3.89, the Efficacy (Sphaerotheca fuliginea) is reported as 100% and the Efficacy (Alternaria solani; 500 ppm of active ingredient) is reported as 100%. The Efficacy (Pyrenophora teres) was 100% and the Efficacy (Leptosphaeria nodorum; 500 ppm of active ingredient) was 90%.
`CCCCCCC1CCCN1C(=O)c1c(C(F)F)nn(C)c1F` (stereo not shown) [Example 8] gave a logP [1] of 3.80, an Efficacy (Sphaerotheca fuliginea) of 98% and an Efficacy (Pyrenophora teres) of 100%. The Efficacy (Leptosphaeria nodorum; 100 ppm of active ingredient) was 90% and the Efficacy (Leptosphaeria nodorum; 500 ppm of active ingredient) was 95%.
`Cn1cc(C(=O)N2CCCC2CC2CC3CCC2C3)c(C(F)F)n1` (stereo not shown) [Example 49] gave a logP [1] of 3.44, an Efficacy (Sphaerotheca fuliginea) of 90% and an Efficacy (Alternaria solani; 500 ppm of active ingredient) of 94%. It also gave an Efficacy (Pyrenophora teres) of 100% and an Efficacy (Leptosphaeria nodorum; 500 ppm of active ingredient) of 70%.
For `Cn1nc(C(F)F)c(C(=O)N2CCCC2CC2CCCCC2)c1F` (stereo not shown) [Example 17], the logP [1] was 3.78, the Efficacy (Sphaerotheca fuliginea) was 100% and the Efficacy (Alternaria solani; 500 ppm of active ingredient) was 94%. For the same molecule, the Efficacy (Pyrenophora teres) was 100%, the Efficacy (Leptosphaeria nodorum; 100 ppm of active ingredient) was 80% and the Efficacy (Leptosphaeria nodorum; 500 ppm of active ingredient) was 95%.
